# Measured values taken from paper PMC7442650, “A machine learning-based chemoproteomic approach to identify drug targets and binding sites in complex proteomes” (Nature Communications, 2020).
# Values joined by “and” are separate entries in the source; they are usually repeats but may differ in a detail not shown here. Identical values can stand only once. Like-named read-outs stand apart in the source and are kept apart here.
# Assays:
# MAPK2K1 (MAP2K1) = MAPK2K1 (MAP2K1) (Homo sapiens, UniProt Q02750); experiment: LiP-Quant, HeLa lysate; assay type: binding
# MAPK2K1 (MAP2K1), sequence (Q02750 whole entry): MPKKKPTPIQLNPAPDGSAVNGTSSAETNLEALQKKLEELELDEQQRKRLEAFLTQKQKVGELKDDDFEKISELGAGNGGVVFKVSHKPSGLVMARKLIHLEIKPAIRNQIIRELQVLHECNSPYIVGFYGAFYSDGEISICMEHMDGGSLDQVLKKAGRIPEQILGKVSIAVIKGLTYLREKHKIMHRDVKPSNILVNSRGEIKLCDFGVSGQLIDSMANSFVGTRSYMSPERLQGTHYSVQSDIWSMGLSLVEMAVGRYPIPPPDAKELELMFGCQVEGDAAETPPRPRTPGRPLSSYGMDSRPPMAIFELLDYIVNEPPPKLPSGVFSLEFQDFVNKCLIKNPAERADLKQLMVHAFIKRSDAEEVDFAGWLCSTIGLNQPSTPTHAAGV
# [1] = target: SRPK1_HUMAN (SRSF protein kinase 1) (Homo sapiens, UniProt Q96SB4); experiment: LiP-Quant, HeLa lysate; assay type: binding
# SRPK1_HUMAN (SRSF protein kinase 1), sequence (Q96SB4 whole entry): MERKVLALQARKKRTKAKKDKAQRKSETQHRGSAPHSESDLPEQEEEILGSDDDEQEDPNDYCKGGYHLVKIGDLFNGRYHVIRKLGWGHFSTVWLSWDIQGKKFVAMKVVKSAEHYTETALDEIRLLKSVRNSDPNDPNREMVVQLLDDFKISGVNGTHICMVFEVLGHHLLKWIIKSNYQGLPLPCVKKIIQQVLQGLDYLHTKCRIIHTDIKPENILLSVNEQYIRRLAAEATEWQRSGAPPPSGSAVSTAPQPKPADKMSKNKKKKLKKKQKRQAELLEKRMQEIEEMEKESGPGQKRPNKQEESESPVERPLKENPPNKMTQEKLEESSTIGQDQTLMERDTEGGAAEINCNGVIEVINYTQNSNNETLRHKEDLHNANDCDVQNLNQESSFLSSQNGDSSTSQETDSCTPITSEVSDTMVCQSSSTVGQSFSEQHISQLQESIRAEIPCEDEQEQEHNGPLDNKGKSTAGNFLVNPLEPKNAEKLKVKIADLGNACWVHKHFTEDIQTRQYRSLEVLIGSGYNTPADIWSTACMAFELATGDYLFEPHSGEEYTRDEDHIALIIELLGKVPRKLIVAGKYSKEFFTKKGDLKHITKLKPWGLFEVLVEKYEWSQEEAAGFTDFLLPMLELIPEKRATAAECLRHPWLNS
# [2] = system: KS6A2_HUMAN (Ribosomal protein S6 kinase alpha-2)
# [3] = target: KS6A3_HUMAN (Ribosomal protein S6 kinase alpha-3) (Homo sapiens, UniProt P51812); experiment: LiP-Quant, HeLa lysate; assay type: binding
# KS6A3_HUMAN (Ribosomal protein S6 kinase alpha-3), sequence (P51812 whole entry): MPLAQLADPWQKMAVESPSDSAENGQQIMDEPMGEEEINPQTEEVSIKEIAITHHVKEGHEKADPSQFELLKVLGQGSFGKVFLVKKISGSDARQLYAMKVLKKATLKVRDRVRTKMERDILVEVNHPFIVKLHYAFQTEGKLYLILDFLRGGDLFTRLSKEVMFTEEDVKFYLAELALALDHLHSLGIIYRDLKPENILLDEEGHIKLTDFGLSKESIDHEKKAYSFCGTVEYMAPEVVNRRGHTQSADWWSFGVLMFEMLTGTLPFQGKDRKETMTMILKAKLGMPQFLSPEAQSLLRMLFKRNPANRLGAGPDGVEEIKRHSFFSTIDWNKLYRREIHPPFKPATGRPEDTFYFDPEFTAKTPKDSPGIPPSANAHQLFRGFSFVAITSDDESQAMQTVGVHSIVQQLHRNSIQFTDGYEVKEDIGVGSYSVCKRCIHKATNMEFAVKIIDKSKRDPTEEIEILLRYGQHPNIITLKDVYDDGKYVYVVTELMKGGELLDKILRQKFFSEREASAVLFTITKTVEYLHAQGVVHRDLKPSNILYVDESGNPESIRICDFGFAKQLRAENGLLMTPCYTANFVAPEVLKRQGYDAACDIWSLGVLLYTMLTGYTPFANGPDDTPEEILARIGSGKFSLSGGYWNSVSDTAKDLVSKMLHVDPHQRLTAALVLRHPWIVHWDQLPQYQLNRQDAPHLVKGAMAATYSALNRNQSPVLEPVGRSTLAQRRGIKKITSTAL
# EIF2AK2 = EIF2AK2 (Homo sapiens, UniProt P19525); experiment: Deep LiP-Quant (4h gradient), HeLa lysate; assay type: binding
# EIF2AK2, sequence (P19525 whole entry): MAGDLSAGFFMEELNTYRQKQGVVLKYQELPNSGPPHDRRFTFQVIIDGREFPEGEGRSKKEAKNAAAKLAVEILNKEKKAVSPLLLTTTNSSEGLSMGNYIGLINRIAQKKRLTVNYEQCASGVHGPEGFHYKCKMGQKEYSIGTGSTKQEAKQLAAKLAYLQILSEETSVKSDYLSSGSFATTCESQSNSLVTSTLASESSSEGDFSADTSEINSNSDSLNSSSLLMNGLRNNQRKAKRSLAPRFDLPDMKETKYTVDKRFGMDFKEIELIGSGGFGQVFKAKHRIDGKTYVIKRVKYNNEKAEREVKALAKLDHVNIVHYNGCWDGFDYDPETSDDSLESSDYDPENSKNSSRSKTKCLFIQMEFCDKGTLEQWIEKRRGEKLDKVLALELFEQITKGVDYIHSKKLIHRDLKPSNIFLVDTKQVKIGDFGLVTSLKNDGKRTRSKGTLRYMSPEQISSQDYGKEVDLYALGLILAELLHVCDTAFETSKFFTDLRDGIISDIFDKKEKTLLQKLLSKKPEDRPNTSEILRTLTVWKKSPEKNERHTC
# RPS6KA3 = RPS6KA3 (Homo sapiens, UniProt P51812); experiment: Deep LiP-Quant (4h gradient), HeLa lysate; assay type: binding
# RPS6KA3, sequence (P51812 whole entry): as the sequence (P51812 whole entry) above
# [4] = target: CAMK2G (KCC2G_HUMAN, Calcium/calmodulin-dependent protein kinase type II subunit gamma) (Homo sapiens, UniProt Q13555); experiment: LiP-Quant, HeLa lysate; assay type: binding; settings: staurosporine sheet; peptide NLINQMLTINPAK; LIPRank 5
# CAMK2G (KCC2G_HUMAN, Calcium/calmodulin-dependent protein kinase type II subunit gamma), sequence (Q13555 whole entry): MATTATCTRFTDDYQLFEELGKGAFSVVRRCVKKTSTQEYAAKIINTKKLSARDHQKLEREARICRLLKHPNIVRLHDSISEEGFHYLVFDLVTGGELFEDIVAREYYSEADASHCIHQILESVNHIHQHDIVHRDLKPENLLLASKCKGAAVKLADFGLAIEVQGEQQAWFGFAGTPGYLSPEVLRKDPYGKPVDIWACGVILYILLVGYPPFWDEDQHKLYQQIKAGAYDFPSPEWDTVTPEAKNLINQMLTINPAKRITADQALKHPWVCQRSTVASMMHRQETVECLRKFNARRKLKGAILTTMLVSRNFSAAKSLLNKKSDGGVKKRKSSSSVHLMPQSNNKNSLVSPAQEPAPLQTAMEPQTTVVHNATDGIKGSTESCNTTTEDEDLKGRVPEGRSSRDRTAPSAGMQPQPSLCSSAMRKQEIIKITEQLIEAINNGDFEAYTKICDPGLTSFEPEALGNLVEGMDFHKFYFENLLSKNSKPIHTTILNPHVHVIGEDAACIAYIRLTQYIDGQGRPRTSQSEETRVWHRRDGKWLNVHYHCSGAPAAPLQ
# [5] = target: CAMK2G (Calcium/calmodulin-dependent protein kinase type II subunit gamma, KCC2G_HUMAN) (Homo sapiens, UniProt Q13555); experiment: LiP-Quant, HeLa lysate; assay type: binding; settings: peptide NLINQMLTINPAK
# CAMK2G (Calcium/calmodulin-dependent protein kinase type II subunit gamma, KCC2G_HUMAN), sequence (Q13555 whole entry): as above
# NEK9 = NEK9 (Homo sapiens, UniProt Q8TD19); experiment: Deep LiP-Quant (4h gradient), HeLa lysate
# NEK9, sequence (Q8TD19 whole entry): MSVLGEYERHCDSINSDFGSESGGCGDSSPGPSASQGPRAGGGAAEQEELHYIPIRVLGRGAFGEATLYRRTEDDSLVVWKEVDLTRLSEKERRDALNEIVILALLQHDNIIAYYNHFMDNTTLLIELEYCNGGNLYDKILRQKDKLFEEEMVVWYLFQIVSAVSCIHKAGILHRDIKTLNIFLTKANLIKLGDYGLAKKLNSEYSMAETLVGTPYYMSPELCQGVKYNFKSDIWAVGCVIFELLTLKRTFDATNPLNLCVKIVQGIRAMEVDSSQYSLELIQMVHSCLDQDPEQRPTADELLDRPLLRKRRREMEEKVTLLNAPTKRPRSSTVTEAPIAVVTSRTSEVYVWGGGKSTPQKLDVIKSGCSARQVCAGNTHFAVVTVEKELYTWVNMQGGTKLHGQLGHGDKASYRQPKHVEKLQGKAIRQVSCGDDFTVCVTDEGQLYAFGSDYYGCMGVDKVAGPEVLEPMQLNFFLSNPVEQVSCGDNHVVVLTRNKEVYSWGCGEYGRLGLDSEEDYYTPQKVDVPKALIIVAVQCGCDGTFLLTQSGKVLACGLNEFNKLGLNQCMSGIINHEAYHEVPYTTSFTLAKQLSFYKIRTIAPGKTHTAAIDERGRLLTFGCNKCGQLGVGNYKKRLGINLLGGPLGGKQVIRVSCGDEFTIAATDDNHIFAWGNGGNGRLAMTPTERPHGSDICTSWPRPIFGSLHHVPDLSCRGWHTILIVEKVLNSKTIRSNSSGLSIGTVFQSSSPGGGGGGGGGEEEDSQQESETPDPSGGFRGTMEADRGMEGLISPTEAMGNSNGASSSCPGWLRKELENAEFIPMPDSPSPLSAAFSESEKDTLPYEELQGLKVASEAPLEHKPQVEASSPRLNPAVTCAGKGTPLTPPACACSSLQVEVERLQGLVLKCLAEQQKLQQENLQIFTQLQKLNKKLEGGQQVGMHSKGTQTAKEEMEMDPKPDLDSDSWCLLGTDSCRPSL
# [6] = target: Bcin06g02870 (predicted casein kinase I homolog) (Botrytis cinerea, UniProt A0A384JJQ0); experiment: LiP-Quant, Botrytis cinerea lysate; assay type: binding
# Excerpt: Given its abilities to identify and characterize drug targets and their binding sites, we applied LiP-Quant to a research fungicide compound with an unknown target (BAYE-004, Fig. 4a).
# His-tagged Bcin06g02870 = experiment: Cellular thermal shift assay (CETSA), western blot; assay type: cell-based, Botrytis cinerea; settings: in vivo treatment, 56 °C
# Method: Botrytis cinerea BO47 (CK1 His-Tagged) cell suspension was adjusted to 1 × 10^6 sp/ml GYPm and incubated for 24 h at 21 °C (110 rpm). […] Cells were harvested by filtration (100 µm) and rinsed with 15 ml of ice-cold HEPES buffer (0.1 M HEPES, 50 mM NaCl, pH 7.5). Harvested mycelium was resuspended in 3.5 ml HEPES buffer and kept on ice. 500 µl of each concentration was transferred to a 2 ml Eppendorf tube and heated to 56 °C on a thermoshaker for 3 min, an additional aliquot from each concentration was left unheated. After heating, cells were kept on ice for 3 min, snap frozen in liquid nitrogen, lyophilized overnight and then stored at −80 °C until protein extraction.
# Lyophilized mycelium was lysed using a Retsch mixer mill (MM 400) with 3 mm tungsten carbide beads (30 Hz for 3 s, two cycles), then 500 µl of cold protein extraction buffer (50 mM HEPES, 50 mM NaCl, 0.4% NP-40) was added. Lysate was incubated for 10 min at 25 °C, centrifuged (10 min, 14,000g) and the supernatant was retained. The lysate was further centrifuged (20 min, 73,400g) to eliminate insoluble proteins. The supernatant was collected, and protein concentration was determined using the Qubit protein assay kit (#Q33211) and stored at −20 °C.
# Target engagement was assessed by western blot. […] The membrane (target protein) and gel (loading control) were imaged using a ChemiDocXRS camera and quantified using ImageJ[43]. […]
# [7] = target: T1, Botrytis cinerea MBP-CK1 recombinant enzyme (MBP-tagged Bcin06g02870) (Botrytis cinerea, UniProt A0A384JJQ0); experiment: CK1 kinase assay (LANCE Ultra TR-FRET); assay type: biochemical; settings: for % Inhibition of CK-1: rep 1, rep2
# T1 sequence (A0A384JJQ0 1-368): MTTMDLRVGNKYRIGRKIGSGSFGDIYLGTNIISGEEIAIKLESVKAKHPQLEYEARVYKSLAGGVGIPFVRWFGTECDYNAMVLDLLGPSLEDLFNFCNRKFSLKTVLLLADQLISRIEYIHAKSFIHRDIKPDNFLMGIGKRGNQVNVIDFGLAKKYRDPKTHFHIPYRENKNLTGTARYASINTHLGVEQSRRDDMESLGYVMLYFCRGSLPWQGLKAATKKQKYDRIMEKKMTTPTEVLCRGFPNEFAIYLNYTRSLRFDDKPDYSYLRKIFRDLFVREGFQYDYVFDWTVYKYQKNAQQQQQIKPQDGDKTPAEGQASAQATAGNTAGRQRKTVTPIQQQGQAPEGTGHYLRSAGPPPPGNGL
# Excerpt: We calculated the center of mass of the #6 and #7 ranking LiP-Quant peptides to estimate the position of the BAYE-004 binding site within Bcin06g02870. Here we considered two LiP-Quant peptides for the center of mass calculation, as there were only two high scoring LiP-Quant peptides that could be used. The putative binding site of the drug maps in the ATP-binding site of Bcin06g02870, which is also a common binding site for kinase inhibitors (Fig. 4e, Supplementary Data 3). Finally, we performed a LANCE Ultra kinase assay (Perkin Elmer) to measure the phosphorylation activity on a peptide substrate of a purified MBP-tagged version of Bcin06g02870.
# The LANCE Ultra time resolved fluorescence resonance energy transfer (Tr-FRET) kinase assay (Perkin Elmer, #TRF0300-C) protocol was used according to manufacturer’s instructions with adaptations made for the following conditions. […] The reaction was performed in duplicates in the dark at 30 °C for 90 min. Plates were read in a Victor2 Perkin plate reader (excitation 340 nm/emission 665 nm).
# [8] = target: Bcin16g04330 (predicted glycogen synthase kinase-3β homolog) (Botrytis cinerea, UniProt A0A384K7E5); experiment: LiP-Quant, Botrytis cinerea lysate; settings: read-out: extrapolated average EC50; top two ranking LiP-Quant peptides
# Bcin16g04330 (predicted glycogen synthase kinase-3β homolog), sequence (A0A384K7E5 1-398): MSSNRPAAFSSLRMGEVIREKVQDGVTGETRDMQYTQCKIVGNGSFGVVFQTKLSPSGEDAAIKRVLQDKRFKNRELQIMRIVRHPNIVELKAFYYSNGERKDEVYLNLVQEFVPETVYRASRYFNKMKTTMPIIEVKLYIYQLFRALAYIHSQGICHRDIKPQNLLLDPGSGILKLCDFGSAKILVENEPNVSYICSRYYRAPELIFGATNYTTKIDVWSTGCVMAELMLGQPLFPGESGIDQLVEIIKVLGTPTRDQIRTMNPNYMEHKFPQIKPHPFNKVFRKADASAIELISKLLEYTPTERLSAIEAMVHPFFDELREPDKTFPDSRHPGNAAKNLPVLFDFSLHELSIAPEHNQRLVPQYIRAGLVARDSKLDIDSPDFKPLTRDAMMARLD
# Botrytis cinerea = experiment: Cell viability (IC50) assay, inhibition of cell growth by optical density; settings: three days, Rep 1-3
# Method: Botrytis cinerea BO5.10 (2 × 10^3 cells/ml) mycelium in GYPm liquid media (200 µl) was cultured at 21 °C without shaking in a micro-titer plate. […] The culture was grown for three days at 21 °C after inoculation at which point the optical density was measured again. Inhibition of cell growth was calculated at each concentration.
# [9] = peptide LPSGVFSL, MAP2K1 (Q02750)
# [10] = peptide STAGNFLVNPLEPK, SRPK1 (Q96SB4)
# [11] = protein level, experiment LiP-Quant
# [12] = peptide VLGQGSFGK, RPS6KA3 (P51812)
smiles,measurement,setting,value
CN[C@@H]1C[C@H]2O[C@@](C)([C@@H]1OC)n1c3ccccc3c3c4c(c5c6ccccc6n2c5c31)C(=O)NC4 [Staurosporine],DRC,MAPK2K1 (MAP2K1); [9],0.9366
same,LIPRank,MAPK2K1 (MAP2K1); [9],2
same,LIPscore,MAPK2K1 (MAP2K1); peptide VSIAVIK (selumetinib sheet) or best peptide of the protein (Supp Data 7),2.822
same,LIPRank,MAPK2K1 (MAP2K1); peptide VSIAVIK (selumetinib sheet) or protein level (Supp Data 7),2
same,LIPscore,"MAPK2K1 (MAP2K1); staurosporine sheet, peptide LPSGVFSL, LIPRank 2",2.822
same,DRC,[1]; [10],0.9525
same,LIPRank,[1]; [10],1
same,LIPRank,[1]; [11],1
same,LIPscore,[1]; [11],3.113
same,LIPscore,"[1]; staurosporine sheet, peptide […], LIPRank 1",3.113
same,LIPscore,[2]; [11],2.777
same,LIPscore,"[2]; staurosporine sheet, peptide […], LIPRank 3",2.777
same,DRC,[3]; [12],0.9262
same,LIPRank,[3]; [12],4
same,LIPRank,[3]; [11],4
same,LIPscore,[3]; [11],2.665
same,LIPscore,"[3]; staurosporine sheet, peptide VLGQGSFGK, LIPRank 4",2.665
same,LiP Score,EIF2AK2; peptide IGDFGLVTSLK,4.708
same,LIPRank,EIF2AK2; protein level,2
same,LiP Score,RPS6KA3; peptide ADPSQFELLK,4.635
same,LIPRank,RPS6KA3; protein level,3
same,LIPscore,[4],2.655
same,DRC,[5],0.9333
same,LIPRank,[5],5
same,LIPscore,[5],2.655
same,LiP Score,NEK9; peptide GAFGEATLYR,4.511
same,LIPRank,NEK9; protein level,4
CCC(=O)Nc1cc(-c2c(-c3ccc(F)cc3)nn3c2CCC3)ccn1 [BAYE-004],EC50 lower than EC50 of the rest of the LiP-Quant peptides above the 1.5 threshold,[6],approximately 1000 fold
same,EC50,"[6]; two peptides, LiP-Quant rank #6 and #7",6 nM and 5 nM
same,thermal stability upon treatment,His-tagged Bcin06g02870,thermally stabilized
same,% Inhibition of CK-1,"[7]; concentration 1,00E-04 (unit not given)",92% and 90%
same,% Inhibition of CK-1,"[7]; concentration 1,00E-05 (unit not given)",98% and 105%
same,% Inhibition of CK-1,"[7]; concentration 1,00E-06 (unit not given)",99% and 101%
same,% Inhibition of CK-1,"[7]; concentration 1,00E-07 (unit not given)",84% and 91%
same,% Inhibition of CK-1,"[7]; concentration 1,00E-08 (unit not given)",53% and 50%
same,% Inhibition of CK-1,"[7]; concentration 1,00E-09 (unit not given)",9%
same,IC50,[7]; read-out: IC50 (% Inhibition of CK-1),12.5 nM
same,EC50,[8],1600 nM
same,inhibition at 0.40745 µM,"Botrytis cinerea; Botrytis cinerea, 72 h, read-out: Inhibition of growth, Dose 0.40745 uM",76.8%
same,inhibition at 1.22234 µM,"Botrytis cinerea; Botrytis cinerea, 72 h, read-out: Inhibition of growth, Dose 1.22234 uM",82.5%
same,Inhibition of growth,Botrytis cinerea; Dose 0.40745 uM,76.882 and 79.9248
same,Inhibition of growth,Botrytis cinerea; Dose 1.22234 uM,82.7279 and 79.8427
